This is an account of results in US20240239861A1, “GLUCAGON-RECEPTOR SELECTIVE POLYPEPTIDES AND METHODS OF USE THEREOF” (i2O Therapeutics, Inc., priority 2016, published 2024).

Where a SMILES comes first, the peptide text is derived from it. [ ]: non-standard residue; d: D form. Aib = CC(C)(N)C(=O)O

The target of one assay is human GCGR (Homo sapiens, UniProt P47871). Nature of the assay: Peptide-receptor mediated cAMP accumulation (LANCE Ultra cAMP) in CHO-K1 cells transfected with human GCGR. The format is cell-based. The note with it: Table 3. (In general: cAMP levels reflect the balance of adenylyl cyclase and phosphodiesterase activity.)
The target in the next assay is human GLP-1R (Homo sapiens, UniProt P43220). In words: Peptide-receptor mediated cAMP accumulation (LANCE Ultra cAMP) in CHO-K1 cells transfected with human GLP-1R. The format is cell-based. The conditions noted are these: hGLP1 pEC50 (cAMP mean (n = 3): 11 point curve starting at 1 nM, Table 3).
Chain of human GLP-1R (P43220 24-463): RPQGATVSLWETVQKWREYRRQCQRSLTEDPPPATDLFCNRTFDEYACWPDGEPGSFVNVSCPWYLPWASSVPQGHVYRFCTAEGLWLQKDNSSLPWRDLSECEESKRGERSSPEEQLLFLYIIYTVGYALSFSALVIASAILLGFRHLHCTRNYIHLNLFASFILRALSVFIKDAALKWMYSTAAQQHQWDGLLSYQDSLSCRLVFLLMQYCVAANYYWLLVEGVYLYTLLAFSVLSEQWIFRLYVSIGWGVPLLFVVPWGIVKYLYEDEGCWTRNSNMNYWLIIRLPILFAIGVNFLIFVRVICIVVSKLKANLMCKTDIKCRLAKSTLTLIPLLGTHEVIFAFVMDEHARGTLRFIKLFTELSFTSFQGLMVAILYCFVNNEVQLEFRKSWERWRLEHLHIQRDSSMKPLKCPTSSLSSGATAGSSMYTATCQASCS

Chain of human GCGR (P47871 26-477): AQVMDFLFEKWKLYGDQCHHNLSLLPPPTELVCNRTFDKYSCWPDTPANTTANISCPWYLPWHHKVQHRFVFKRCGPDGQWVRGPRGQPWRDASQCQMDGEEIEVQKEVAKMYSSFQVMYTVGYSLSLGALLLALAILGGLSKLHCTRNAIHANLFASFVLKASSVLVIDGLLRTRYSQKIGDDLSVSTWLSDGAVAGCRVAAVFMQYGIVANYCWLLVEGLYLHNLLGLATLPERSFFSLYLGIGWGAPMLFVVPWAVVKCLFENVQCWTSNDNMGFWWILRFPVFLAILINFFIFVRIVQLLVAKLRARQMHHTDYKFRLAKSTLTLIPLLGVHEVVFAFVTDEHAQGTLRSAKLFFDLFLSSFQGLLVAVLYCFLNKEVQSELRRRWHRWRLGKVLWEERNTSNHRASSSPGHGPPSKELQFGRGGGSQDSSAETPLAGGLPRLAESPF

With `CC(C)C[C@H](NC(=O)[C@H](CCCCN)NC(=O)C(C)(C)NC(=O)[C@H](CC(=O)O)NC(=O)[C@H](CC(C)C)NC(=O)[C@H](Cc1ccc(O)cc1)NC(=O)[C@H](CCCCN)NC(=O)[C@H](CO)NC(=O)[C@H](Cc1ccc(O)cc1)NC(=O)[C@H](CC(=O)O)NC(=O)[C@H](CO)NC(=O)[C@@H](NC(=O)[C@H](Cc1ccccc1)NC(=O)[C@@H](NC(=O)CNC(=O)[C@H](Cc1c[nH]cn1)NC(=O)[C@H](CO)NC(=O)[C@@H](N)Cc1ccc(O)cc1)[C@@H](C)O)[C@@H](C)O)C(=O)N[C@@H](C)C(=O)N[C@@H](CCC(N)=O)C(=O)N[C@@H](CCC(=O)O)C(=O)N[C@@H](Cc1ccccc1)C(=O)N[C@H](C(=O)NC(C)(C)C(=O)N[C@@H](Cc1c[nH]c2ccccc12)C(=O)N[C@@H](CC(C)C)C(=O)N[C@@H](CCC(=O)O)C(=O)N[C@@H](CC(=O)O)C(=O)N[C@@H](CCC(=O)O)C(=O)N1CCC[C@H]1C(=O)N[C@@H](CO)C(=O)N[C@@H](CO)C(=O)NCC(=O)N[C@@H](C)C(=O)N1CCC[C@H]1C(=O)N1CCC[C@H]1C(=O)N1CCC[C@H]1C(=O)N[C@@H](CO)C(=O)O)C(C)C` [Compound A78] (H-YSHGTFTSDYSKYLD[Aib]KLAQEFV[Aib]WLEDEPSSGAPPPS-OH; N-terminus assumed), the EC50 (usually the midpoint of the concentration-response curve) is 0.0158 nM at human GCGR and greater than 1 nM on human GLP-1R.
On to `CC(C)C[C@H](NC(=O)[C@H](Cc1ccc(O)cc1)NC(=O)[C@H](CCCCN)NC(=O)[C@H](CO)NC(=O)[C@H](Cc1ccc(O)cc1)NC(=O)[C@H](CC(=O)O)NC(=O)[C@H](CO)NC(=O)[C@@H](NC(=O)[C@H](Cc1ccccc1)NC(=O)[C@@H](NC(=O)CNC(=O)[C@H](Cc1c[nH]cn1)NC(=O)[C@H](CO)NC(=O)[C@@H](N)Cc1ccc(O)cc1)[C@@H](C)O)[C@@H](C)O)C(=O)N[C@@H](CC(=O)O)C(=O)NC(C)(C)C(=O)N[C@@H](CCCCN)C(=O)N[C@@H](CCC(=O)O)C(=O)N[C@@H](C)C(=O)N[C@@H](CCC(N)=O)C(=O)N[C@@H](CCC(=O)O)C(=O)N[C@@H](Cc1ccccc1)C(=O)N[C@H](C(=O)NC(C)(C)C(=O)N[C@@H](Cc1c[nH]c2ccccc12)C(=O)N[C@@H](CC(C)C)C(=O)N[C@@H](CCC(=O)O)C(=O)N[C@@H](CC(=O)O)C(=O)N[C@@H](CCC(=O)O)C(=O)N1CCC[C@H]1C(=O)N[C@@H](CO)C(=O)N[C@@H](CO)C(=O)NCC(=O)N[C@@H](C)C(=O)N1CCC[C@H]1C(=O)N1CCC[C@H]1C(=O)N1CCC[C@H]1C(=O)N[C@@H](CO)C(=O)O)C(C)C` [Compound A79] (H-YSHGTFTSDYSKYLD[Aib]KEAQEFV[Aib]WLEDEPSSGAPPPS-OH; N-terminus assumed), for which the EC50 is 0.0631 nM at human GCGR and greater than 1 nM at human GLP-1R.
On the same counts, the results for `CC(C)C[C@H](NC(=O)[C@H](Cc1ccc(O)cc1)NC(=O)[C@H](CCCCN)NC(=O)[C@H](CO)NC(=O)[C@H](Cc1ccc(O)cc1)NC(=O)[C@H](CC(=O)O)NC(=O)[C@H](CO)NC(=O)[C@@H](NC(=O)[C@H](Cc1ccccc1)NC(=O)[C@@H](NC(=O)CNC(=O)[C@H](CCC(N)=O)NC(=O)[C@H](CO)NC(=O)[C@@H](N)Cc1ccc(O)cc1)[C@@H](C)O)[C@@H](C)O)C(=O)N[C@@H](CC(=O)O)C(=O)N[C@@H](CO)C(=O)N[C@@H](C)C(=O)N[C@@H](CCCNC(=N)N)C(=O)N[C@@H](C)C(=O)N[C@@H](CCC(N)=O)C(=O)N[C@@H](CCC(=O)O)C(=O)N[C@@H](Cc1ccccc1)C(=O)N[C@H](C(=O)N[C@@H](CCCCN)C(=O)N[C@@H](Cc1c[nH]c2ccccc12)C(=O)N[C@@H](CC(C)C)C(=O)N[C@@H](CCC(=O)O)C(=O)N[C@@H](CC(=O)O)C(=O)N[C@@H](CCC(=O)O)C(=O)N1CCC[C@H]1C(=O)N[C@@H](CCCCN)C(=O)N[C@@H](CO)C(=O)N[C@@H](CCCCN)C(=O)N[C@@H](CO)C(=O)N1CCC[C@H]1C(=O)N1CCC[C@H]1C(=O)N1CCC[C@H]1C(=O)N[C@@H](CO)C(=O)O)C(C)C` [Compound A81] (H-YSQGTFTSDYSKYLDSARAQEFVKWLEDEPKSKSPPPS-OH; N-terminus assumed) are 0.01 nM and greater than 1 nM.
Turning to `CC(C)C[C@H](NC(=O)[C@H](Cc1ccc(O)cc1)NC(=O)[C@H](CCCCN)NC(=O)[C@H](CO)NC(=O)[C@H](Cc1ccc(O)cc1)NC(=O)[C@H](CC(=O)O)NC(=O)[C@H](CO)NC(=O)[C@@H](NC(=O)[C@H](Cc1ccccc1)NC(=O)[C@@H](NC(=O)CNC(=O)[C@H](CCC(N)=O)NC(=O)[C@H](CO)NC(=O)[C@@H](N)Cc1ccc(O)cc1)[C@@H](C)O)[C@@H](C)O)C(=O)N[C@@H](CC(=O)O)C(=O)N[C@@H](CO)C(=O)N[C@@H](C)C(=O)N[C@@H](CCCNC(=N)N)C(=O)N[C@@H](C)C(=O)N[C@@H](CCC(N)=O)C(=O)N[C@@H](CCC(=O)O)C(=O)N[C@@H](Cc1ccccc1)C(=O)N[C@H](C(=O)N[C@@H](CCCCN)C(=O)N[C@@H](Cc1c[nH]c2ccccc12)C(=O)N[C@@H](CC(C)C)C(=O)N[C@@H](CCC(=O)O)C(=O)N[C@@H](CC(=O)O)C(=O)N[C@@H](CCC(=O)O)C(=O)N1CCC[C@H]1C(=O)N[C@@H](CCCCN)C(=O)N[C@@H](CO)C(=O)N[C@@H](CCCCN)C(=O)N[C@@H](C)C(=O)N1CCC[C@H]1C(=O)N1CCC[C@H]1C(=O)N1CCC[C@H]1C(=O)N[C@@H](CO)C(=O)O)C(C)C` [Compound A82] (H-YSQGTFTSDYSKYLDSARAQEFVKWLEDEPKSKAPPPS-OH; N-terminus assumed), the half-maximal effective concentration (EC50) at human GCGR is 0.01 nM; at human GLP-1R, greater than 1 nM.
As for `CC(C)C[C@H](NC(=O)[C@H](Cc1ccc(O)cc1)NC(=O)[C@H](CCCCN)NC(=O)[C@H](CO)NC(=O)[C@H](Cc1ccc(O)cc1)NC(=O)[C@H](CC(=O)O)NC(=O)[C@H](CO)NC(=O)[C@@H](NC(=O)[C@H](Cc1ccccc1)NC(=O)[C@@H](NC(=O)CNC(=O)[C@H](Cc1c[nH]cn1)NC(=O)[C@H](CO)NC(=O)[C@@H](N)Cc1ccc(O)cc1)[C@@H](C)O)[C@@H](C)O)C(=O)N[C@@H](CC(=O)O)C(=O)N[C@@H](CO)C(=O)N[C@@H](C)C(=O)N[C@@H](CCCNC(=N)N)C(=O)N[C@@H](C)C(=O)N[C@@H](CCC(N)=O)C(=O)N[C@@H](CCC(=O)O)C(=O)N[C@@H](Cc1ccccc1)C(=O)N[C@H](C(=O)N[C@@H](CCCCN)C(=O)N[C@@H](Cc1c[nH]c2ccccc12)C(=O)N[C@@H](CC(C)C)C(=O)N[C@@H](CCC(=O)O)C(=O)N[C@@H](CC(=O)O)C(=O)N[C@@H](CCC(=O)O)C(=O)N1CCC[C@H]1C(=O)N[C@@H](CCCCN)C(=O)N[C@@H](CO)C(=O)N[C@@H](CCCCN)C(=O)N[C@@H](CO)C(=O)N1CCC[C@H]1C(=O)N1CCC[C@H]1C(=O)N1CCC[C@H]1C(=O)N[C@@H](CO)C(=O)O)[C@@H](C)O` [Compound A83] (H-YSHGTFTSDYSKYLDSARAQEFTKWLEDEPKSKSPPPS-OH; N-terminus assumed), the EC50 was 0.0631 nM at human GCGR and greater than 1 nM on human GLP-1R.
In the case of `CC(C)C[C@H](NC(=O)[C@H](Cc1ccc(O)cc1)NC(=O)[C@H](CCCCN)NC(=O)[C@H](CO)NC(=O)[C@H](Cc1ccc(O)cc1)NC(=O)[C@H](CC(=O)O)NC(=O)[C@H](CO)NC(=O)[C@@H](NC(=O)[C@H](Cc1ccccc1)NC(=O)[C@@H](NC(=O)CNC(=O)[C@H](Cc1c[nH]cn1)NC(=O)[C@H](CO)NC(=O)[C@@H](N)Cc1ccc(O)cc1)[C@@H](C)O)[C@@H](C)O)C(=O)N[C@@H](CC(=O)O)C(=O)N[C@@H](CO)C(=O)N[C@@H](C)C(=O)N[C@@H](CCCNC(=N)N)C(=O)N[C@@H](C)C(=O)N[C@@H](CCC(N)=O)C(=O)N[C@@H](CCC(=O)O)C(=O)N[C@@H](Cc1ccccc1)C(=O)N[C@H](C(=O)N[C@@H](CCCCN)C(=O)N[C@@H](Cc1c[nH]cn1)C(=O)N[C@@H](CC(C)C)C(=O)N[C@@H](CCC(=O)O)C(=O)N[C@@H](CC(=O)O)C(=O)N[C@@H](CCC(=O)O)C(=O)N1CCC[C@H]1C(=O)N[C@@H](CCCCN)C(=O)N[C@@H](CO)C(=O)N[C@@H](CCCCN)C(=O)N[C@@H](CO)C(=O)N1CCC[C@H]1C(=O)N1CCC[C@H]1C(=O)N1CCC[C@H]1C(=O)N[C@@H](CO)C(=O)O)C(C)C` [Compound A84] (H-YSHGTFTSDYSKYLDSARAQEFVKHLEDEPKSKSPPPS-OH; N-terminus assumed), the EC50 on human GCGR is 0.398 nM; at human GLP-1R it was greater than 1 nM.
For `CC(C)C[C@H](NC(=O)[C@H](Cc1ccc(O)cc1)NC(=O)[C@H](CCCCN)NC(=O)[C@H](CO)NC(=O)[C@H](Cc1ccc(O)cc1)NC(=O)[C@H](CC(=O)O)NC(=O)[C@H](CO)NC(=O)[C@@H](NC(=O)[C@H](Cc1ccccc1)NC(=O)[C@@H](NC(=O)CNC(=O)[C@H](CCC(N)=O)NC(=O)[C@H](CO)NC(=O)[C@@H](N)Cc1c[nH]c2ccccc12)[C@@H](C)O)[C@@H](C)O)C(=O)N[C@@H](CC(=O)O)C(=O)NC(C)(C)C(=O)N[C@@H](CCCCN)C(=O)N[C@@H](C)C(=O)N[C@@H](C)C(=O)N[C@@H](CCC(N)=O)C(=O)N[C@@H](CCC(=O)O)C(=O)N[C@@H](Cc1ccccc1)C(=O)N[C@H](C(=O)NC(C)(C)C(=O)N[C@@H](Cc1c[nH]c2ccccc12)C(=O)N[C@@H](CC(C)C)C(=O)N[C@@H](CCC(=O)O)C(=O)N[C@@H](CC(=O)O)C(=O)N[C@@H](CCC(=O)O)C(=O)N1CCC[C@H]1C(=O)N[C@@H](CO)C(=O)N[C@@H](CO)C(=O)NCC(=O)N[C@@H](C)C(=O)N1CCC[C@H]1C(=O)N1CCC[C@H]1C(=O)N1CCC[C@H]1C(=O)N[C@@H](CO)C(=O)O)C(C)C` [Compound A92] (H-WSQGTFTSDYSKYLD[Aib]KAAQEFV[Aib]WLEDEPSSGAPPPS-OH; N-terminus assumed), the EC50 was 0.02 nM on human GCGR and greater than 1 nM at human GLP-1R.
